16 molecules from ChEMBL document CHEMBL3045262, “Synthesis and Insecticidal Activity of Novel 1-Benzoyl-3-phenylurea Derivatives with Polyfluoroethylsulfenyl, -sulfonyl, and-sulfinyl Substituents” (1992) can be followed below.

Holding throughout (format): functional
In assay [1] the test system is Adoxophyes orana. As to the kind of experiment: Larvicidal activity against second-instar larvae of Adoxophyes orana infested soybean seedling assessed as mortality at 20 ppm measured after 7 days. To be noted: 168 h.
In assay [2] the test system is Plutella xylostella. As to the kind of experiment: Larvicidal activity against second-instar larvae of Plutella xylostella (diamondback moth) infested raddish seedling assessed as mortality at 50 ppm sprayed 2 hr prior to infestation measured after 4 days.
Assay [3] concerns Spodoptera litura. Nature of the assay: Larvicidal activity against third-instar larvae of Spodoptera litura infested in soybean seedling assessed as mortality at 2 ppm sprayed 6 days prior to infestation measured after 5 days.
Assay [4] concerns Spodoptera litura. Nature of the assay: Larvicidal activity against third-instar larvae of Spodoptera litura infested in soybean seedling assessed as mortality at 2 ppm sprayed 1 day prior to infestation measured after 5 days.
Assay [5] has as its system Adoxophyes orana. As to the kind of experiment: Larvicidal activity against second-instar larvae of Adoxophyes orana infested soybean seedling assessed as mortality at 5 ppm measured after 7 days. The note with it: 168 h.
Assay [6] deals with Plutella xylostella. As to the kind of experiment: Larvicidal activity against second-instar larvae of Plutella xylostella (diamondback moth) infested raddish seedling assessed as mortality at 3.3 ppm sprayed 2 hr prior to infestation measured after 4 days.

As a reminder, the mortality is the share of the test organisms that died.

As to `O=C(NC(=O)c1c(F)cccc1F)Nc1ccc(Cl)cc1` [DIFLUBENZURON], in the assay on Adoxophyes orana [1], the mortality at 20 ppm came out at 20%. Besides, in the assay with Plutella xylostella [2], the mortality at 50 ppm is 20%. Also, the results for the mortality at 2 ppm in the assay with Spodoptera litura [3] and with Spodoptera litura [4] were 15% and 20%, respectively.

In the case of `Cc1cc(SC(F)(F)C(F)F)ccc1NC(=O)NC(=O)c1c(F)cccc1F`, the mortality at 5 ppm in the assay on Adoxophyes orana [5] is 100%. Moreover, the mortality at 3.3 ppm in the assay with Plutella xylostella [6] amounted to 100%. In addition, the results for the mortality at 2 ppm in the assay on Spodoptera litura [3] and in the assay on Spodoptera litura [4] were 100% and 95%, respectively.

In the case of `O=C(NC(=O)c1c(F)cccc1F)Nc1ccc(S(=O)(=O)C(F)(F)C(F)F)cc1Br`, the mortality at 5 ppm with Adoxophyes orana [5] turned out to be 40%. For the same molecule, the mortality at 3.3 ppm with Plutella xylostella [6] was 65%. Besides, the mortality at 2 ppm in the assay with Spodoptera litura [3] is 85%; with Spodoptera litura [4] it was 100%.

As for `O=C(NC(=O)c1c(F)cccc1F)Nc1ccc([S+]([O-])C(F)(F)C(F)F)c(Cl)c1Cl` (centres undefined), the mortality at 5 ppm in the assay with Adoxophyes orana [5] came out at 85%. In addition, the mortality at 3.3 ppm in the assay with Plutella xylostella [6] worked out at 100%. Also, the mortality at 2 ppm in the assay with Spodoptera litura [3] and with Spodoptera litura [4] was 100% throughout.

For `O=C(NC(=O)c1c(F)cccc1F)Nc1ccc([S+]([O-])C(F)(F)C(F)Cl)cc1F` (centres undefined), in the assay on Adoxophyes orana [5], the mortality at 5 ppm was found to be 100%. Moreover, the mortality at 3.3 ppm with Plutella xylostella [6] stood at 100%. Also, the mortality at 2 ppm in the assay on Spodoptera litura [3] and in the assay on Spodoptera litura [4] was 100% throughout.

As to `O=C(NC(=O)c1c(F)cccc1F)Nc1cc(Cl)c([S+]([O-])C(F)(F)C(F)F)cc1Cl` (centres undefined), the mortality at 5 ppm in the assay on Adoxophyes orana [5] is 75%. For the same molecule, the mortality at 3.3 ppm with Plutella xylostella [6] was determined as 100%. For the same molecule, the mortality at 2 ppm with Spodoptera litura [3] and with Spodoptera litura [4] was 100% each time.

As for `Cc1cc([S+]([O-])C(F)(F)C(F)Cl)c(C)cc1NC(=O)NC(=O)c1c(F)cccc1F` (centres undefined), the mortality at 5 ppm in the assay on Adoxophyes orana [5] was found to be 100%. The mortality at 3.3 ppm in the assay on Plutella xylostella [6] turned out to be 100%. In addition, the mortality at 2 ppm with Spodoptera litura [3] and in the assay with Spodoptera litura [4] was 100% each time.

Consider `O=C(NC(=O)c1c(F)cccc1F)Nc1ccc(SC(F)(F)C(F)F)c(Cl)c1`, for which the mortality at 20 ppm with Adoxophyes orana [1] amounted to 65%. In the assay on Plutella xylostella [6], the mortality at 3.3 ppm was found to be 100%. Besides, the mortality at 2 ppm in the assay on Spodoptera litura [3] and with Spodoptera litura [4] was 100% throughout.

Consider `Cc1cc(SC(F)(F)C(F)Cl)c(C)cc1NC(=O)NC(=O)c1c(F)cccc1F` (centres undefined), for which the mortality at 5 ppm in the assay on Adoxophyes orana [5] amounted to 95%. The mortality at 3.3 ppm in the assay with Plutella xylostella [6] is 100%. The mortality at 2 ppm with Spodoptera litura [3] and with Spodoptera litura [4] was 100% throughout.

As for `O=C(NC(=O)c1c(F)cccc1F)Nc1ccc([S+]([O-])C(F)(F)C(F)F)cc1F` (centres undefined), the mortality at 5 ppm in the assay with Adoxophyes orana [5] was 100%. For the same molecule, in the assay on Plutella xylostella [6], the mortality at 3.3 ppm worked out at 100%. Further, the mortality at 2 ppm with Spodoptera litura [3] amounted to 95%; in the assay with Spodoptera litura [4], 100%.

On to `O=C(NC(=O)c1c(F)cccc1F)Nc1ccc([S+]([O-])C(F)(F)C(F)Cl)cc1Cl` (centres undefined), for which the mortality at 5 ppm in the assay with Adoxophyes orana [5] came to 95%. For the same molecule, the mortality at 3.3 ppm with Plutella xylostella [6] was 95%. The mortality at 2 ppm in the assay on Spodoptera litura [3] was 90%; in the assay on Spodoptera litura [4] it was 100%.

As for `Cc1cc(S(=O)(=O)C(F)(F)C(F)Cl)c(C)cc1NC(=O)NC(=O)c1c(F)cccc1F` (centres undefined), the mortality at 5 ppm in the assay with Adoxophyes orana [5] came to 100%. Further, in the assay with Plutella xylostella [6], the mortality at 3.3 ppm is 100%. For the same molecule, the mortality at 2 ppm with Spodoptera litura [3] and in the assay with Spodoptera litura [4] was 100% each time.

`O=C(NC(=O)c1c(F)cccc1F)Nc1cc(Cl)c(S(=O)(=O)C(F)(F)C(F)Cl)cc1Cl` (centres undefined): the mortality at 5 ppm in the assay on Adoxophyes orana [5] was found to be 100%. The mortality at 3.3 ppm in the assay on Plutella xylostella [6] amounted to 100%. Also, the mortality at 2 ppm is 95% with Spodoptera litura [3] and 100% in the assay on Spodoptera litura [4].

Turning to `Cc1cc(S(=O)(=O)C(F)(F)C(F)Cl)ccc1NC(=O)NC(=O)c1c(F)cccc1F` (centres undefined), in the assay with Adoxophyes orana [5], the mortality at 5 ppm is 95%. In addition, the mortality at 3.3 ppm with Plutella xylostella [6] stood at 100%. Further, the mortality at 2 ppm in the assay on Spodoptera litura [3] and in the assay with Spodoptera litura [4] was 100% in each case.

With `O=C(NC(=O)c1c(F)cccc1F)Nc1ccc(SC(F)(F)C(F)Cl)cc1` (centres undefined), in the assay with Adoxophyes orana [5], the mortality at 5 ppm came to 40%. Also, the mortality at 3.3 ppm in the assay on Plutella xylostella [6] worked out at 100%. Besides, the mortality at 2 ppm in the assay with Spodoptera litura [3] is 45%; with Spodoptera litura [4] it was 65%.

On to `Cc1c(NC(=O)NC(=O)c2c(F)cccc2F)ccc(SC(F)(F)C(F)Cl)c1C` (centres undefined), for which the mortality at 5 ppm with Adoxophyes orana [5] was found to be 100%. Further, the mortality at 3.3 ppm in the assay with Plutella xylostella [6] came to 100%. The mortality at 2 ppm in the assay with Spodoptera litura [3] and in the assay with Spodoptera litura [4] was 100% in each case.
